Where “and” joins values, the source holds several entries; their conditions need not be identical. Identical values can stand only once.
Each compound was assayed against T1, chymase (Golden hamster, UniProt A0A1U7QTH6) (assay: Enzymatic Chymase Assay). Settings: pH 7.5.
T1 sequence (A0A1U7QTH6 whole entry): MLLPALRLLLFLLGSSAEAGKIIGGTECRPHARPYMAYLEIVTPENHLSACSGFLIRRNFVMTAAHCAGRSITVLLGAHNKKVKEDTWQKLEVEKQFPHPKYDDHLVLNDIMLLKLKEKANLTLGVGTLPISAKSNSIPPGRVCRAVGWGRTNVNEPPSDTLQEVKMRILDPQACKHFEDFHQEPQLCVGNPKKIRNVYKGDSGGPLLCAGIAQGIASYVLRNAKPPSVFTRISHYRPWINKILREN
An IC50 of 130 nM was found for `COc1ccc(-n2cc(-c3nnn[nH]3)c(=O)n(Cc3cccc(Cl)c3Cl)c2=O)cc1` [US9695131, 27] in this work.
An IC50 of 13 nM was found for `Cn1c(=O)oc2cc(-n3cc(-c4nnn[nH]4)c(=O)n(C4CCCc5c(Cl)cccc54)c3=O)ccc21` (racemic) [US9695131, 30] in this work.
An IC50 of 3 nM was found for `Cc1c(Cn2c(=O)c(C(=O)NC3(C(=O)O)CCC3)cn(-c3ccc4c(c3)n(C)c(=O)n4C)c2=O)cccc1C(F)(F)F` [US9695131, 51] in this work.
An IC50 of 3.5 nM was found for `Cn1c(=O)oc2cc(-n3cc(-c4nnn[nH]4)c(=O)n([C@@H]4CCc5c4cccc5C(F)(F)F)c3=O)ccc21` [US9695131, 14] in this work.
An IC50 of 19 nM was found for `Cc1c(Cn2c(=O)c(C(=O)NC(C)C(=O)O)cn(-c3ccc4c(c3)ncn4C)c2=O)cccc1C(F)(F)F` (racemic) [US9695131, 57] in this work.
With `Cn1c(=O)n(C)c2cc(-n3cc(-c4nnn[nH]4)c(=O)n(C4CCc5c(Cl)cccc54)c3=O)ccc21` (centres undefined) [US9695131, 18] the IC50 was 4.6 nM and 2.8 nM.
An IC50 of 238 nM was found for `Cc1c(Cn2c(=O)c(C(=O)NCC#N)cn(-c3ccc(N4CCNC4=O)cc3)c2=O)cccc1C(F)(F)F` [US9695131, 55] in this work.
An IC50 of 54 nM was found for `CCOC(=O)C(C)(C)NC(=O)c1cn(-c2ccc3c(c2)n(C)c(=O)n3C)c(=O)n(Cc2cccc(C(F)(F)F)c2C)c1=O` [US9695131, 48] in this work.
An IC50 of 8.7 nM was found for `Cn1c(=O)sc2cc(-n3cc(C#N)c(=O)n([C@@H]4CCc5c4cccc5C(F)(F)F)c3=O)ccc21` [US9695131, 3] in this work.
An IC50 of 8.1 nM was found for `Cn1c(=O)oc2cc(-n3cc(-c4noc(=O)[nH]4)c(=O)n([C@@H]4CCc5c4cccc5C(F)(F)F)c3=O)ccc21` [US9695131, 38] in this work.
An IC50 of 39 nM was found for `CCOC(=O)C1(NC(=O)c2cn(-c3ccc4c(c3)n(C)c(=O)n4C)c(=O)n(Cc3cccc(C(F)(F)F)c3C)c2=O)CCC1` [US9695131, 50] in this work.
An IC50 of 30 nM was found for `Cc1c(Cn2c(=O)c(-c3nnn[nH]3)cn(-c3ccc(N4CCOC4=O)cc3)c2=O)cccc1C(F)(F)F` [US9695131, 25] in this work.
An IC50 of 44 nM was found for `COc1ccc(-n2cc(-c3nnn[nH]3)c(=O)n(Cc3cccc(C(F)(F)F)c3Cl)c2=O)cc1` [US9695131, 26] in this work.
An IC50 of 9.8 nM was found for `Cn1c(=O)sc2cc(-n3cc(C(N)=O)c(=O)n([C@@H]4CCc5c4cccc5C(F)(F)F)c3=O)ccc21` [US9695131, 42] in this work.
An IC50 of 2.6 nM was found for `Cn1c(=O)oc2cc(-n3cc(C(=O)NC#N)c(=O)n([C@@H]4CCc5c4cccc5C(F)(F)F)c3=O)ccc21` [US9695131, 63] in this work.
An IC50 of 5.8 nM was found for `Cc1c(Cn2c(=O)c(-c3nnn[nH]3)cn(-c3ccc4c(c3)n(C)c(=O)n4C)c2=O)cccc1C(F)(F)F` [US9695131, 19] in this work.
An IC50 of 53 nM was found for `Cn1c(=O)sc2cc(-n3cc(C#N)c(=O)n(C4CCc5c(Cl)cccc54)c3=O)ccc21` (racemic) [US9695131, 8] in this work.
An IC50 of 25 nM was found for `Cc1c(Cn2c(=O)c(C(=O)NC(C)C(=O)O)cn(-c3ccc(N4CCNC4=O)cc3)c2=O)cccc1C(F)(F)F` (racemic) [US9695131, 45] in this work.
An IC50 of 4.9 nM was found for `Cc1c(Cn2c(=O)c(-c3noc(=O)[nH]3)cn(-c3ccc4c(c3)n(C)c(=O)n4C)c2=O)cccc1C(F)(F)F` [US9695131, 33] in this work.
An IC50 of 3.6 nM was found for `Cc1c(Cn2c(=O)c(C(=O)NC(C)(C)C(=O)O)cn(-c3ccc4c(c3)n(C)c(=O)n4C)c2=O)cccc1C(F)(F)F` [US9695131, 49] in this work.
An IC50 of 12 nM was found for `COc1ccc(-n2cc(-c3nsc(=O)[nH]3)c(=O)n(Cc3cccc(C(F)(F)F)c3C)c2=O)cc1OC` [US9695131, 40] in this work.
An IC50 of 2.8 nM was found for `Cn1c(=O)sc2cc(-n3cc(-c4nnn[nH]4)c(=O)n([C@@H]4CCc5c4cccc5C(F)(F)F)c3=O)ccc21` [US9695131, 15] in this work.
An IC50 of 22 nM was found for `COc1ccc(-n2cc(-c3nnn[nH]3)c(=O)n(Cc3cccc(C(F)(F)F)c3C)c2=O)cc1OC` [US9695131, 20] in this work.
An IC50 of 37 nM was found for `Cn1c(=O)n(C)c2cc(-n3cc(C#N)c(=O)n(C4CCc5c(Cl)cccc54)c3=O)ccc21` (racemic) [US9695131, 7] in this work.
An IC50 of 12 nM was found for `Cn1c(=O)oc2cc(-n3cc(C(N)=O)c(=O)n([C@@H]4CCc5c4cccc5C(F)(F)F)c3=O)ccc21` [US9695131, 41] in this work.
An IC50 of 1590 nM was found for `COC(=O)C(COC(C)(C)C)NC(=O)c1cn(-c2ccc(N3CCNC3=O)cc2)c(=O)n(Cc2cccc(C(F)(F)F)c2C)c1=O` (centres undefined) [US9695131, 60] in this work.
An IC50 of 19 nM was found for `COc1ccc(-n2cc(-c3noc(=O)[nH]3)c(=O)n(Cc3cccc(C(F)(F)F)c3C)c2=O)cc1OC` [US9695131, 36] in this work.
An IC50 of 17 nM was found for `Cc1c(Cn2c(=O)c(C(=O)NC(CO)C(=O)O)cn(-c3ccc(N4CCNC4=O)cc3)c2=O)cccc1C(F)(F)F` (centres undefined) [US9695131, 61] in this work.
An IC50 of 35 nM was found for `COc1ccc(-n2cc(C#N)c(=O)n(Cc3cccc(C(F)(F)F)c3C)c2=O)cc1OC` [US9695131, 9] in this work.
An IC50 of 7.6 nM was found for `Cc1c(C#N)c(=O)n([C@@H]2CCc3c2cccc3C(F)(F)F)c(=O)n1-c1ccc2c(c1)oc(=O)n2C` [US9695131, 12] in this work.
An IC50 of 76 nM was found for `COc1ccc(-n2cc(-c3noc(=O)[nH]3)c(=O)n(Cc3cccc(C(F)(F)F)c3C)c2=O)cc1` [US9695131, 37] in this work.
An IC50 of 32 nM was found for `Cc1c(Cn2c(=O)c(-c3nnn[nH]3)cn(-c3ccc(N4CCNC4=O)cc3)c2=O)cccc1C(F)(F)F` [US9695131, 21] in this work.
An IC50 of 18 nM was found for `Cn1c(=O)oc2cc(-n3cc(C#N)c(=O)n([C@@H]4CCc5c4cccc5C(F)(F)F)c3=O)ccc21` [US9695131, 2] in this work.
An IC50 of 16 nM was found for `Cc1c(Cn2c(=O)c(-c3nsc(=O)[nH]3)cn(-c3ccc(N4CCOC4=O)cc3)c2=O)cccc1C(F)(F)F` [US9695131, 39] in this work.
An IC50 of 29 nM was found for `Cc1c(Cn2c(=O)c(C#N)cn(-c3ccc(N4CCOC4=O)cc3)c2=O)cccc1C(F)(F)F` [US9695131, 5] in this work.
An IC50 of 7.3 nM was found for `Cn1c(=O)sc2cc(-n3cc(-c4nnn[nH]4)c(=O)n(C4CCc5c(Cl)cccc54)c3=O)ccc21` (racemic) [US9695131, 23] in this work.
An IC50 of 94 nM was found for `Cc1c(Cn2c(=O)c(C(N)=O)cn(-c3ccc(N4CCNC4=O)cc3)c2=O)cccc1C(F)(F)F` [US9695131, 52] in this work.
An IC50 of 6.6 nM was found for `Cc1c(Cn2c(=O)c(C#N)cn(-c3ccc4c(c3)n(C)c(=O)n4C)c2=O)cccc1C(F)(F)F` [US9695131, 6] in this work.
An IC50 of 4.2 nM was found for `Cc1c(Cn2c(=O)c(C(=O)NC(C)C(=O)O)cn(-c3ccc4c(c3)C(C)(C)C(=O)N4C)c2=O)cccc1C(F)(F)F` (racemic) [US9695131, 47] in this work.
An IC50 of 180 nM was found for `COC(=O)CCNC(=O)c1cn(-c2ccc(N3CCNC3=O)cc2)c(=O)n(Cc2cccc(C(F)(F)F)c2C)c1=O` [US9695131, 53] in this work.
An IC50 of 914 nM was found for `COc1ccc(-n2cc(C(=O)NCCC(=O)O)c(=O)n(Cc3cccc(Cl)c3Cl)c2=O)cc1` [US9695131, 59] in this work.
An IC50 of 55 nM was found for `Cc1c(Cn2c(=O)c(-c3noc(=O)[nH]3)cn(-c3ccc(N4CCNC4=O)cc3)c2=O)cccc1C(F)(F)F` [US9695131, 34] in this work.
An IC50 of 48 nM was found for `Cc1c(Cn2c(=O)c(C#N)cn(-c3ccc(N4CCNC4=O)cc3)c2=O)cccc1C(F)(F)F` [US9695131, 4] in this work.
An IC50 of 36 nM was found for `Cc1c(Cn2c(=O)c(-c3noc(=O)[nH]3)cn(-c3ccc(N4CCOC4=O)cc3)c2=O)cccc1C(F)(F)F` [US9695131, 35] in this work.
